Measurements: the supplement of paper PMC11061612

Columns and labels:
[1] = compound: C=CCn1c(=O)c2cnc(Nc3ccc(N4CCN(C)CC4)cc3)nc2n1-c1cccc(C(C)(C)O)n1 [AZD1775]; details: max 3 µM
How it was run: (§1)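 Cancer cell lines were plated in 1536-well plates in 7.5 μl of DMEM/F12 or RPMI with 10% FBS and kept 24 hours at 37°C and 5% CO2 before 72 hours of dosing, with final DMSO typically 0.2%. CellTiter-Glo 2.0 luminescence measured viability, scaled between blank-well and DMSO-well means. Dose responses were fitted to a two-parameter logistic curve with a non-linear mixed effects model. This fit gives the single-agent IC50.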

[2] = compound: C[C@@H](c1ccc2nccn2c1)n1nnc2ncc(-c3cnn(C)c3)nc21 [Savolitinib]; details: max 1 µM
How it was run: as §1

[3] = compound: COc1cc2ncnc(Nc3ccc(F)c(Cl)c3)c2cc1OCCCN1CCOCC1 [Gefitinib]; details: max 10 µM
How it was run: as §1

[4] = compound: COc1cccc(OCCCN)c1-c1cc(Nc2cnc(C#N)cn2)n[nH]1 [Prexasertib]; details: max 1 µM
How it was run: as §1

[5] = compound: CC1=CN2[C@@H](C1)C=NC3=CC(=C(C=C3C2=O)OC)OCCCCCOC4=C(C=C5C(=C4)N=C[C@@H]6CC(=CN6C5=O)C)OC [SG3199]; details: max 0.001 µM
How it was run: as §1

[6] = compound: COc1nnc2ccc(N3CCC(c4ccc(OCCN5CCN(C)C(=O)[C@H]5C)cc4)CC3)nn12 [AZD5153]; details: max 1 µM
How it was run: as §1

[7] = compound: CC1(C)CCC(CN2CCN(c3ccc(C(=O)NS(=O)(=O)c4ccc(NCC5CCOCC5)c([N+](=O)[O-])c4)c(Oc4cnc5[nH]ccc5c4)c3)CC2)=C(c2ccc(Cl)cc2)C1 [Venetoclax]; details: max 1 µM
How it was run: as §1

[8] = compound: O=C(c1cc(Cc2n[nH]c(=O)c3ccccc23)ccc1F)N1CCN(C(=O)C2CC2)CC1 [Olaparib]
How it was run: as §1

[9] = compound: CC(=O)Nc1cccc(-n2c(=O)n(C3CC3)c(=O)c3c(Nc4ccc(I)cc4F)n(C)c(=O)c(C)c32)c1 [Trametinib]; details: max 1 µM
How it was run: as §1

[10] = compound: C1CN(CCC1(C(=O)N[C@@H](CCO)C2=CC=C(C=C2)Cl)N)C3=NC=NC4=C3C=CN4 [Capivasertib]
How it was run: as §1

[11] = compound: Cc1nc(-c2cn3c(n2)-c2ccc(-c4cnn(C(C)(C)C(N)=O)c4)cc2OCC3)n(C(C)C)n1 [Taselisib]; details: max 10 µM
How it was run: as §1

[12] = compound: CC(=O)c1c(C)c2cnc(Nc3ccc(N4CCNCC4)cn3)nc2n(C2CCCC2)c1=O [Palbociclib]; details: max 10 µM
How it was run: as §1

[13] = compound: COc1cc(Nc2ncc3c(n2)-c2ccc(Cl)cc2C(c2c(F)cccc2OC)=NC3)ccc1C(=O)O [Alisertib]; details: max 10 µM
How it was run: as §1

[14] = compound: COc1cccc2c1C(=O)c1c(O)c3c(c(O)c1C2=O)C[C@@](O)(C(=O)CO)C[C@@H]3O[C@H]1C[C@H](N)[C@H](O)[C@H](C)O1 [Doxorubicin]; details: max 1 µM
How it was run: as §1

[15] = compound: CN(C)CCCOc1ccc(-c2ccc3ncc4c(c3c2)n(C2CCOCC2)c(=O)n4C)cn1 [AZD0156]; details: max 3 µM
How it was run: as §1

[16] = compound: Cn1cnc2c(F)c(Nc3ccc(Br)cc3Cl)c(C(=O)NOCCO)cc21 [Selumetinib]; details: max 10 µM
How it was run: as §1

[17] = compound: CCc1c2c(nc3ccc(O)cc13)-c1cc3c(c(=O)n1C2)COC(=O)[C@]3(O)CC [SN-38]; details: max 0.3 µM
How it was run: as §1

[18] = compound: Cc1c2c(nn1C)CSCc1cc(n(C)n1)CSc1cc(c3ccccc3c1)OCCCc1c(C(=O)O)n(C)c3c-2c(Cl)ccc13 [AZD5991]; details: max 1 µM
How it was run: as §1

[19] = compound: CCN(CCO)CCCOc1ccc2c(Nc3cc(CC(=O)Nc4cccc(F)c4)[nH]n3)ncnc2c1 [AZD2811]; details: max 1 µM
How it was run: as §1

[20] = compound: CC(C)n1c(=O)n(C)c2cnc3cc(F)c(-c4ccc(OCCCN5CCCCC5)nc4)cc3c21 [AZD1390]; details: max 0.3 µM
How it was run: as §1

[21] = compound: C[C@@H](Oc1cc(-c2cnn(C3CCNCC3)c2)cnc1N)c1c(Cl)ccc(F)c1Cl [Crizotinib]; details: max 10 µM
How it was run: as §1

[22] = compound: CN(CC[C@H](CSC1=CC=CC=C1)NC2=C(C=C(C=C2)S(=O)(=O)NC(=O)C3=CC=C(C=C3)N4CCC(CC4)[C@H](C5=CC=CC=C5C6=CC=C(C=C6)Cl)O)S(=O)(=O)C(F)(F)F)CCO [AZD4320]; details: max 1 µM
How it was run: as §1

[23] = compound: C[C@@H]1COCCN1C2=NC(=NC(=C2)C3(CC3)[S@](=N)(=O)C)C4=C5C=CNC5=NC=C4 [AZD6738]; details: max 10 µM
How it was run: as §1

[24] = compound: C[C@@H](Nc1cc(F)cc(F)c1)c1cc(C(=O)N(C)C)cc2c(=O)cc(N3CCOCC3)oc12 [AZD8186]; details: max 3 µM
How it was run: as §1

[25] = compound: CC1=C(C(=CC=C1)Cl)NC(=O)C2=CN=C(S2)NC3=CC(=NC(=N3)C)N4CCN(CC4)CCO [Dasatinib]; details: max 2 µM
How it was run: as §1

[26] = compound: Cc1cc2ncnn2cc1Nc1ncc2c(n1)n(C1CCOCC1)c(=O)n2C [AZD7648]; details: max 10 µM
How it was run: as §1

[27] = compound: CS(=O)(=O)CCNCc1ccc(-c2ccc3ncnc(Nc4ccc(OCc5cccc(F)c5)c(Cl)c4)c3c2)o1 [Lapatinib]; details: max 10 µM
How it was run: as §1

| Cell Line | IC50, cell viability 72 h [1] | IC50, cell viability 72 h [2] | IC50, cell viability 72 h [3] | IC50, cell viability 72 h [4] | IC50, cell viability 72 h [5] | IC50, cell viability 72 h [6] | IC50, cell viability 72 h [7] | IC50, cell viability 72 h ([8]; max 10 µM) | IC50, cell viability 72 h [9] | IC50, cell viability 72 h ([10]; max 10 µM) | IC50, cell viability 72 h [11] | IC50, cell viability 72 h [12] | IC50, cell viability 72 h [13] | IC50, cell viability 72 h [14] | IC50, cell viability 72 h [15] | IC50, cell viability 72 h [16] | IC50, cell viability 72 h [17] | IC50, cell viability 72 h [18] | IC50, cell viability 72 h [19] | IC50, cell viability 72 h [20] | IC50, cell viability 72 h [21] | IC50, cell viability 72 h [22] | IC50, cell viability 72 h [23] | IC50, cell viability 72 h [24] | IC50, cell viability 72 h [25] | IC50, cell viability 72 h [26] | IC50, cell viability 72 h [27] | IC50, cell viability 72 h ([8]; max 3 µM) | IC50, cell viability 72 h ([10]; max 3 µM) |
| --- | --- | --- | --- | --- | --- | --- | --- | --- | --- | --- | --- | --- | --- | --- | --- | --- | --- | --- | --- | --- | --- | --- | --- | --- | --- | --- | --- | --- | --- |
| 8505C (Thyroid Gland Carcinoma) | 1.6 µM | > 1 µM | > 10 µM | 0.829 µM | > 0.001 µM | > 1 µM | > 1 µM | > 10 µM | > 1 µM | > 10 µM | > 10 µM | > 10 µM | > 10 µM | 0.565 µM | > 3 µM | > 10 µM | 0.0236 µM | > 1 µM | > 1 µM | > 0.3 µM | > 10 µM | > 1 µM | > 10 µM | > 3 µM | > 2 µM | > 10 µM | > 10 µM |  |  |
| BICR10 (Oral Cavity Carcinoma) | 0.413 µM |  |  |  |  |  |  |  |  |  |  |  |  |  | > 3 µM |  |  |  |  |  |  |  |  |  |  |  |  | > 3 µM | 2.52 µM |
| CHSA8926 (Chondrosarcoma) | 1.27 µM | > 1 µM | > 10 µM | > 1 µM | > 0.001 µM | > 1 µM | > 1 µM | > 10 µM |  | > 10 µM | 1.52 µM | > 10 µM | > 10 µM | 0.703 µM | > 3 µM | > 10 µM | > 0.3 µM | > 1 µM | > 1 µM | > 0.3 µM | 9.16 µM | > 1 µM | > 10 µM | 2.24 µM | 0.0608 µM | > 10 µM | > 10 µM |  |  |
| DAN-G (Pancreatic Carcinoma) | 0.405 µM | > 1 µM | > 10 µM | 0.0727 µM | > 0.001 µM | > 1 µM | > 1 µM | > 10 µM | 0.675 µM | > 10 µM | 0.718 µM | > 10 µM | > 10 µM | > 1 µM | > 3 µM | > 10 µM | > 0.3 µM | > 1 µM | > 1 µM | > 0.3 µM | > 10 µM | > 1 µM | 5.49 µM | > 3 µM | > 2 µM | > 10 µM | > 10 µM |  |  |
| ESO51 (Esophageal Adenocarcinoma) | 0.298 µM | 0.0142 µM | > 10 µM | 0.0424 µM | > 0.001 µM | 0.354 µM | > 1 µM | > 10 µM | 0.035 µM | > 10 µM | > 10 µM | > 10 µM | > 10 µM | > 1 µM | > 3 µM | > 10 µM | > 0.3 µM | > 1 µM | > 1 µM | > 0.3 µM | 0.186 µM | > 1 µM | 1.79 µM | > 3 µM | > 2 µM | > 10 µM | > 10 µM |  |  |
| G-361 (Melanoma) | 1.59 µM | > 1 µM | > 10 µM | 0.149 µM | > 0.001 µM | 0.277 µM | > 1 µM | > 10 µM | 0.0146 µM | > 10 µM | 7.24 µM | > 10 µM | > 10 µM | 0.816 µM | > 3 µM | 1.54 µM | > 0.3 µM | 0.306 µM | > 1 µM | > 0.3 µM | 8.66 µM | > 1 µM | > 10 µM | > 3 µM | > 2 µM | > 10 µM | 8 µM |  |  |
| HCC1187 (Breast Carcinoma) | 1.06 µM | > 1 µM | > 10 µM | 0.362 µM | > 0.001 µM | > 1 µM | > 1 µM | > 10 µM | > 1 µM | > 10 µM | > 10 µM | > 10 µM | 0.114 µM | > 1 µM | > 3 µM | > 10 µM | > 0.3 µM | 0.0877 µM | 0.0294 µM | > 0.3 µM | 4.57 µM | > 1 µM | > 10 µM | > 3 µM | > 2 µM | > 10 µM | > 10 µM |  |  |
| HCC1419 (Breast Carcinoma) | > 3 µM | > 1 µM | > 10 µM | > 1 µM | > 0.001 µM | > 1 µM | > 1 µM | > 10 µM | > 1 µM |  | 7.76 µM |  | > 10 µM | > 1 µM | > 3 µM | > 10 µM | > 0.3 µM | > 1 µM | > 1 µM | > 0.3 µM |  | > 1 µM | > 10 µM | > 3 µM |  | > 10 µM |  |  | > 3 µM |
| JHH-4 (Hepatocellular Carcinoma) | > 3 µM | > 1 µM | > 10 µM | 0.912 µM | > 0.001 µM | > 1 µM | > 1 µM | > 10 µM | 0.118 µM | > 10 µM | > 10 µM | > 10 µM | 6.48 µM | > 1 µM | > 3 µM | > 10 µM | 0.031 µM | > 1 µM | > 1 µM | > 0.3 µM | > 10 µM | > 1 µM | > 10 µM | > 3 µM | 0.173 µM | > 10 µM | > 10 µM |  |  |
